Laboratory results from patent US8129398B2 (priority 2008, dated 2012).
Where two headings read alike, the source gives them in different places.

Columns and labels:
HIV-integrase = target: T1, HIV-integrase (Human immunodeficiency virus type 1 group M subtype B, UniProt P12497); experiment: HIV-Integrase Inhibition Activity (SPA bead integration assay with P33 labeled target DNA); type: biochemical; conditions: for IC50: recombinant integrase, class symbols, read-out: in vitro activity; for Ki: representative compounds
T1 construct: Recombinant integrase (0.26 ng) was incubated with the beads
Method in brief: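 Biotinylated substrate DNA on streptavidin SPA beads loaded with recombinant integrase (90 min, 37° C), washed, then inhibitor plus 0.1 fmol P33-labeled target DNA added. Reaction stopped with 10 mM EDTA; integration measured as CPM by scintillation, giving IC50 ranks.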

[1] = system: recombinant NL-Rluc virus; experiment: Inhibition of HIV replication (recombinant NL-Rluc virus, Renilla luciferase reporter); type: cell-based
[2] = read-out: Antiviral activity, NL-Rluc virus, serum condition not specified (10% FBS, 15 mg/ml human serum albumin/10% FBS or 40% human serum/5% FBS), class symbols

## CC(=O)N1CCC[C@H]1C(=O)NC12CCC(CC1)Cn1c2nc(C(=O)NCc2ccc(F)cc2)c(O)c1=O [Example 255, 7,10-Ethanopyrimido[1,2-a]azepine-2-carboxamide, 10-[[[(2S)-1-acetyl-2-pyrrolidinyl]carbonyl]amino]-N-[(4-fluorophenyl)methyl]-4,6,7,8,9,10-hexahydro-3-hydroxy-4-oxo-]
HIV-integrase
  IC50: < 10 nM
[1]; [2]
  EC50: < 10 nM

## CS(=O)(=O)N1CCC[C@H]1C(=O)NC12CCC(CC1)Cn1c2nc(C(=O)NCc2ccc(F)cc2)c(O)c1=O [Example 256, 7,10-Ethanopyrimido[1,2-a]azepine-2-carboxamide, N-[(4-fluorophenyl)methyl]-4,6,7,8,9,10-hexahydro-3-hydroxy-10-[[[(2S)-1-(methylsulfonyl)-2-pyrrolidinyl]carbonyl]amino]-4-oxo-]
HIV-integrase
  IC50: < 10 nM
[1]; [2]
  EC50: < 10 nM

## Cc1cc(CNC(=O)c2nc3n(c(=O)c2O)CC2CCC3(NC(=O)C3(C(F)(F)F)CC3)CC2)ccc1F [Example 303, 7,10-Ethanopyrimido[1,2-a]azepine-2-carboxamide, N-[(4-fluoro-3-methylphenyl)methyl]-4,6,7,8,9,10-hexahydro-3-hydroxy-4-oxo-10-[[[1-(trifluoromethyl)cyclopropyl]carbonyl]amino]-]
HIV-integrase
  IC50: > 100 nM
  Ki: 180 nM
[1]; Human immunodeficiency virus 1
  EC50: 192 nM

## Cc1cc(CNC(=O)c2nc3n(c(=O)c2O)CC2CCC3(NS(=O)(=O)CC3CC3)CC2)ccc1F [Example 306, 7,10-Ethanopyrimido[1,2-a]azepine-2-carboxamide, 10-[[(cyclopropylmethyl)sulfonyl]amino]-N-[(4-fluoro-3-methylphenyl)methyl]-4,6,7,8,9,10-hexahydro-3-hydroxy-4-oxo-]
HIV-integrase
  IC50: > 100 nM
  Ki: 860 nM
[1]; Human immunodeficiency virus 1
  EC50: 385 nM

## Cc1cc(CNC(=O)c2nc3n(c(=O)c2O)CC2CCC3(NC(=O)c3cccnn3)CC2)ccc1F [Example 314, 7,10-Ethanopyrimido[1,2-a]azepine-2-carboxamide, N-[(4-fluoro-3-methylphenyl)methyl]-4,6,7,8,9,10-hexahydro-3-hydroxy-4-oxo-10-[(3-pyridazinylcarbonyl)amino]-]
HIV-integrase
  IC50: < 10 nM
  Ki: < 1 nM
[1]; Human immunodeficiency virus 1
  EC50: < 1 nM

## CN(C)C(=O)C(=O)NC12CCC(CC1)Cn1c2nc(C(=O)N[C@H]2C[C@@H]2c2ccccc2)c(O)c1=O [Example 357]
HIV-integrase
  IC50: < 10 nM
  Ki: 9 nM
[1]; Human immunodeficiency virus 1
  EC50: 6 nM

## COc1ccc(CNC(=O)c2nc3n(c(=O)c2O)CC2CCC3(NC(=O)C(=O)N(C)C)CC2)c(OC)c1 [Example 382]
HIV-integrase
  IC50: 10 to 100 nM
  Ki: 11 nM
[1]; Human immunodeficiency virus 1
  EC50: 16 nM

## Cc1noc(C)c1S(=O)(=O)NC12CCC(CC1)Cn1c2nc(C(=O)NCc2ccc(F)cc2)c(O)c1=O [Example 392]
HIV-integrase
  IC50: > 100 nM
  Ki: 467 nM
[1]; Human immunodeficiency virus 1
  EC50: 618 nM

## O=C(NCc1ccc(F)cc1)c1nc2n(c(=O)c1O)CC1CCC2(NS(=O)(=O)c2ccccc2OC(F)(F)F)CC1 [Example 396]
HIV-integrase
  IC50: > 100 nM
  Ki: 294 nM
[1]; Human immunodeficiency virus 1
  EC50: 455 nM
